Read-outs that look alike come from different tables or passages of the source.
Tests used:
[1] = test system: T1, human CMG helicase (hCMG); assay: hCMG helicase fork-unwinding (strand displacement) assay; type: biochemical
T1 construct: made in house; host or cells: High Five insect cells, baculovirus (11 viruses co-infected)
Experimental: (§1) The human CMG helicase was purified following the established and validated protocol of Hurwitz and colleagues(19,20), with minor modifications. A detailed description of the approach is shown here, to allow for comparisons to the methods described by the Hurwitz group.
(§2) High Five insect cells (2-3 million cells/ml, 1.5 L), were in cultured in a shaking incubator at 27° C. in suspension with ESF921 serum free medium (Expression Systems, CA; cat. #96-001-01), then co-infected for 60 hrs with 11 baculoviruses expressing human 6His2Flag-Cdc45, the human MCM hexamer (Mcm2, Mcm3, Mcm4, Mem5, Mcm6, Mcm7), and human GINS (GST-Sld5, Psf3, Psf2, and Psf1). Each virus was infected at an MOI of ~10 from individual virus stocks. Infected cells were harvested by centrifugation at 650×g for 5 min at 4° C., washed with cold PBS, frozen on dry ice, and stored at −80° C. until use. The cell pellet (~20 mL) was thawed on ice, resuspended in 45 ml Hypotonic Buffer [20 mM Hepes-NaOH (pH 7.5), 5 mM KCl, 1.5 mM MgCl2] with protease inhibitors (1 mM [COMPOUND LEFT OUT], 1 mM Benzamidine, 0.15 μM Aprotinin, 4 μM Leupeptin, and 1 μM Antipain), and kept on ice for 10 min before lysing by Dounce homogenization (tight fitting, 60 strokes). The cell extract was adjusted to 0.42 M potassium acetate and centrifuged at 43,000×g for 1 hr at 4° C. The cleared lysate was mixed with 0.75 ml glutathione beads (cat. #17-0756-05; GE Healthcare) pre-equilibrated with FEQ buffer [20 mM Hepes-NaOH (pH 7.5), 0.42 M potassium acetate, 5 mM KCl, 1.5 mM MgCl2] and incubated by rotation at 4° C. overnight. Following centrifugation at 290×g at 4° C., the bound glutathione beads were washed four times (15 min each wash) with 40 ml of FW buffer [20 mM Hepes-NaOH (pH 7.5), 0.42 M potassium acetate, 1 mM DTT, 1 mM EDTA, 0.01% NP40, 10% glycerol (vol/vol) with protease inhibitors as above] containing protease inhibitors (as above). Bound proteins were eluted at 4° C. three times (1 hr each elution) with 3.5 ml Q buffer [20 mM Hepes-NaOH (pH 7.5), 1 mM DTT, 1 mM EDTA, 0.01% NP40, 10% glycerol (vol/vol), and protease inhibitors as above] containing 0.15 M potassium acetate and 20 mM reduced glutathione. The eluted fractions were combined and applied to a HiTrap Q-Sepharose FF column (HiTrap Q FF 1 mL, cat. #17505301, Cytiva), pre-equilibrated 3× with 5 ml of Q buffer containing 0.15 M, 0.75 M, 0.15M potassium acetate, in sequence. The Q-Sepharose FF column was washed with 10 ml of FW buffer containing protease inhibitors (as above). The proteins were eluted with 10 ml of Q buffer containing 0.75 M potassium acetate. The eluted fraction was mixed with 0.15 ml of anti-Flag M2 affinity gel/beads and incubated while rotating at 4° C. overnight. After centrifugation at 290×g for 5 min at 4° C., the beads were washed three times with 10 ml PreScission buffer [50 mM Tris-HCl (pH 7.5), 0.15 M NaCl, 1 mM DTT, 1 mM EDTA] for 15 min at 4° C., and eluted at 4° C. three times (1 hr each elution) with 0.2 ml PreScission enzyme buffer containing 0.2 mg/ml 3×-Flag peptides. The combined eluates were incubated with 20 Units of PreScission Protease (GE Healthcare) and 0.1 mL glutathione beads for 4 hr at 4° C. The supernatant was layered onto a 15-40% glycerol gradient [25 mM Tris-HCl (pH 7.5), 50 mM NaCl, 1 mM DTT, 1 mM EDTA, 0.01% NP40, protease inhibitors as above] in a 5 mL ultra-centrifugation tube and centrifuged at 260,000×g for 14 hr at 4° C. Glycerol fractions (0.15 mL each fraction) were collected from bottom of tube and stored at −80° C. until use. Typically, fractions 6-9 contained complete hCMG (~750-800 kDa) and co-migrated with thyroglobulin.
(§3) Helicase fork-unwinding assays were performed at 37° C. for 1 hr in 20 μL reaction volumes using 2-4 μl of hCMG (~15-30 fmol), in a buffer consisting of 25 mM Hepes-NaOH (pH 7.5), 5 mM NaCl, 0.5 mM ATP, 10 mM magnesium acetate, 1 mM DTT, 0.1 mg/ml bovine serum albumin (BSA), and ~10 fmol of radiolabeled DNA forks (20). […]

[2] = test system: T1, human CMG helicase (hCMG); settings: role: substrate, cited from earlier work
[3] = test system: T1, human CMG helicase (hCMG); assay: hCMG ATPase activity, FP ADP^2 Transcreener assay; type: biochemical; settings: primary FP ATPase assay
Experimental: The fluorescent-polarization (FP) ADP-sensing assays were performed using the Transcreener® ADP^2 FP assay kit (cat #3010-1K, Bellbrook Labs). For hCMG inhibitor screening, assays were performed at 37° C. for 1 hr in 10 μl reactions in a 384-well plate (cat. #4514, Corning) using 2 μL of hCMG (~15 fmol), 25 mM Hepes-NaOH (pH 7.5), 10 mM NaCl, 0.5 mM ATP, 10 mM magnesium acetate, 1 mM DTT, 0.1 mg/ml BSA, and DNA fork substrates. […] Selected inhibitors or samples from a chemical library were added into the reactions when conducting the screening or testing inhibitor effectiveness. The NCI Diversity Set VI chemical library was obtained from the National Cancer Institute (Bethesda, MD).
The window of sensitivity for the ADP-sensing assays is determined by setting up two 10 μL control samples without any added hCMG helicase: a Low-FP mixture (4 nM ADP Alexa Fluor-633 Tracer alone) and a High-FP mixture (4 nM ADP Alexa Fluor-633 Tracer plus patented anti-ADP^2 Antibody). The amount of ADP^2 Antibody used had to be adjusted to account for the use of 500 μM ATP in our hCMG assays, versus 10 μM ATP in enzyme reactions typically assessed with standard kits prepared by BellBrook Labs. […] This was done according to the manufacturer by performing a titration with increasing ADP^2 Antibody, fixed 4 nM ADP Alexa Fluor-633 Tracer, and 500 μM ATP to determine the ~EC80-85 for millipol (mP) changes, which determined the optimal ADP^2 Antibody concentration to use as 0.64 mg/ml (FIG. 9A). Samples are read with a Perkin Elmer Envision II plate reader with optimized Cy5 (far-red) FP-compatible mirror and cubes (cat #2100-8390, Perkin Elmer). The Low-FP sample is the least polarized and gives a low mP reading, while the High-FP sample is the most polarized and gives the highest mP reading. The difference between the Low-FP and High-FP values defines the FP assay window, which is normally in a range of 150-200 mP under ideal conditions for screening purposes. The hCMG helicase hydrolyzes ATP to ADP and decreases the mP reading within this window, with an ideal change (ΔmP) in the FP window of at least 50% to be in a readable range for inhibitor screening (as per manufacturer). Potential hCMG chemical inhibitors reverse this effect and cause the mP readings to increase.
We performed a titration with increasing and decreasing concentrations of ADP and ATP, respectively, to assess the sensitivity of the FP assay in detecting ADP production (FIG. 9B). Consistent with the stated manufacturer predictions, the assay can reliably detect 1-3% changes in ADP production (i.e., 5-15 μM ADP production) in starting concentrations of ATP of 500 μM, with a Z′ efficiency between 0.6-0.8 (determined following manufacturer protocols).
Once the hCMG enzyme reactions are complete, 10 μL of 1× Stop Solution and Detection Buffer (buffer from BellBrook Labs; containing 4 nM ADP Alexa Fluor-633 Tracer plus ADP^2 Antibody) are added to each reaction, and to the High-FP control. The Low-FP control receives 10 μL of 1× Stop Solution and Detection Buffer containing only 4 nM ADP Alexa Fluor-633 Tracer (no Antibody). Samples are incubated at 25° C. for 1 hr, then read in the plate reader. […] Plate readings from these tests of potential positive hits should be similar to that seen with the Low-FP control, or such hits may instead be false-positives.

[4] = test system: solid tumor cell lines (NCI-60 set); settings: cited from earlier work
[5] = test system: Cdk1 and Cdk2 targets (Rb, Cdc6, PP1a); assay: Immunoblot of Cdk1/Cdk2-dependent targets, HaCaT cells; type: cell-based, human; settings: extended exposure (18 hrs)
Experimental: Immunoblots of total proteins from synchronized HaCaT cells treated with compounds at time of release (0 hr; beginning of G1 phase) and collected after 18 hrs of exposure. (FIG. 5A) DDK-dependent phosphorylation sites on Mcm2 were analyzed with phospho-specific antibodies. (FIG. 5B) Cdk1- and Cdk2-dependent targets (Rb, Cdc6, and PP1α) were analyzed with phospho-specific antibodies.

[6] = test system: T2, Nc1ncnc2c1ncn2[C@@H]1O[C@H](COP(=O)(O)OP(=O)(O)OP(=O)(O)O)[C@@H](O)[C@H]1O; assay: hCMG helicase fork-unwinding (strand displacement) assay; type: biochemical, human; settings: other: role: substrate
T2 construct: made in house; host or cells: High Five insect cells, baculovirus (11 viruses co-infected)
Experimental: as §1, §2, §3

T1 sequence (P49736 whole entry): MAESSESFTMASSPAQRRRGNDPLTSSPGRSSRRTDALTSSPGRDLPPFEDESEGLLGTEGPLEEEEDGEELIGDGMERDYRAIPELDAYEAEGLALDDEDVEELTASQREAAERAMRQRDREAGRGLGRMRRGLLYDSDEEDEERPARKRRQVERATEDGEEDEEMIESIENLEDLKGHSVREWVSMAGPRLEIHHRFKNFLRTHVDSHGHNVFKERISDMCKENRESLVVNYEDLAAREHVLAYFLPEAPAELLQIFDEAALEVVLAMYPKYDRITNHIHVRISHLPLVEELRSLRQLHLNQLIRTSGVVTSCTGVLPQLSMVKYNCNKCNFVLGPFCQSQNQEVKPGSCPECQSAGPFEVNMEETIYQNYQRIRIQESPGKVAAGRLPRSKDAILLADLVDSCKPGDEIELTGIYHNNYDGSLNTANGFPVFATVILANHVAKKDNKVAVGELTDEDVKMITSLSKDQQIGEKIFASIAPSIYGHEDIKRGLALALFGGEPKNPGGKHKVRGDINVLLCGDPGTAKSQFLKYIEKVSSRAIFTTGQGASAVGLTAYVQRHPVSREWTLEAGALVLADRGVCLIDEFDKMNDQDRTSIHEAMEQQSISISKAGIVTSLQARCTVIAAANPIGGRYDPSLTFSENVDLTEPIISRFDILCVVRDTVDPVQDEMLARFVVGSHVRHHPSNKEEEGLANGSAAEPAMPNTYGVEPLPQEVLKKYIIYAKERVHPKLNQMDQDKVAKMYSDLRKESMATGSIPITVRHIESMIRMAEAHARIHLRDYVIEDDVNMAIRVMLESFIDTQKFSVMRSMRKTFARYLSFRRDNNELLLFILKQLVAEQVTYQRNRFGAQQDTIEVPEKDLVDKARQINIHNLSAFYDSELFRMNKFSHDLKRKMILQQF
T1 sequence (P25205 whole entry, further chain): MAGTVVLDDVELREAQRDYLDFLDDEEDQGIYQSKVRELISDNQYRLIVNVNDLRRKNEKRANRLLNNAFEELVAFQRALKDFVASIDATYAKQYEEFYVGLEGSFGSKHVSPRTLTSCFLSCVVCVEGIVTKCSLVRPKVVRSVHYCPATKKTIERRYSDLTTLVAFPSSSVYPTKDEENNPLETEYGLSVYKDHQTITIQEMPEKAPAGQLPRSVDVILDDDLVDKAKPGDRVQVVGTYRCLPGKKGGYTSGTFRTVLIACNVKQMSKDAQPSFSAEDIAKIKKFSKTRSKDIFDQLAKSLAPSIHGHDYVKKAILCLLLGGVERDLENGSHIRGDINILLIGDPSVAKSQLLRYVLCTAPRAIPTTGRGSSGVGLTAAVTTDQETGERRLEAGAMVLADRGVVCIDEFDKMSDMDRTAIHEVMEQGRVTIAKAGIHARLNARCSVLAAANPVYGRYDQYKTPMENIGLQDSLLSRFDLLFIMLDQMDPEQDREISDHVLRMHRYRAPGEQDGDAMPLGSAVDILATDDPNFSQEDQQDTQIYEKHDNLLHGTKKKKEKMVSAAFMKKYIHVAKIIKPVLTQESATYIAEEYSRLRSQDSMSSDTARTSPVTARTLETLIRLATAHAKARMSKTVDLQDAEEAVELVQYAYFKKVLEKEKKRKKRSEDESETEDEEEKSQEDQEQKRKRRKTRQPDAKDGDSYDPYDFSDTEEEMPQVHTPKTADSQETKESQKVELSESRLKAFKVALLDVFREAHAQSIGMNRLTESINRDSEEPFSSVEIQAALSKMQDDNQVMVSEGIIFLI
T1 sequence (P33991 whole entry, further chain): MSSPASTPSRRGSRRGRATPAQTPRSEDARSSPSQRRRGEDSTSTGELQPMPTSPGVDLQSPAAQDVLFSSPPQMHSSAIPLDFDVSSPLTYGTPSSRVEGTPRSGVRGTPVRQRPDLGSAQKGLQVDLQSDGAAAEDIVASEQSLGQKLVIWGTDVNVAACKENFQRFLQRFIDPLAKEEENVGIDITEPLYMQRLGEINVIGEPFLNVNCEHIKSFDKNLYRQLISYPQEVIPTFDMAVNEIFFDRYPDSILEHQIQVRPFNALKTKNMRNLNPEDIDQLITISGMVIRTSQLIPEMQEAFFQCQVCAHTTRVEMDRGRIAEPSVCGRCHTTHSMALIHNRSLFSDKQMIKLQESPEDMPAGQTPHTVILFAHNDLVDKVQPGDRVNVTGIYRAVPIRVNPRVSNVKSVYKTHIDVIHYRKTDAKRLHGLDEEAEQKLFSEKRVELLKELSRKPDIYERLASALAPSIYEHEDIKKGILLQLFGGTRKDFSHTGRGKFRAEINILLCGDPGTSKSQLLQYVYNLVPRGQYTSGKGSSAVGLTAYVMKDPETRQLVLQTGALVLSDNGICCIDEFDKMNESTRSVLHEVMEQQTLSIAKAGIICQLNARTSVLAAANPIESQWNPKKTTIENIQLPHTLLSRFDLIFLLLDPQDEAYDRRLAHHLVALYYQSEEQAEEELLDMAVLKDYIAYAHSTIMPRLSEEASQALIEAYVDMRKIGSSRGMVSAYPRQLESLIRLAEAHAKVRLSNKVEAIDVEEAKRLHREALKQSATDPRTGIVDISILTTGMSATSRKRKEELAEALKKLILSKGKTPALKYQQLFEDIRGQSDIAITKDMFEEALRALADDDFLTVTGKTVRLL
T1 sequence (P33992 whole entry, further chain): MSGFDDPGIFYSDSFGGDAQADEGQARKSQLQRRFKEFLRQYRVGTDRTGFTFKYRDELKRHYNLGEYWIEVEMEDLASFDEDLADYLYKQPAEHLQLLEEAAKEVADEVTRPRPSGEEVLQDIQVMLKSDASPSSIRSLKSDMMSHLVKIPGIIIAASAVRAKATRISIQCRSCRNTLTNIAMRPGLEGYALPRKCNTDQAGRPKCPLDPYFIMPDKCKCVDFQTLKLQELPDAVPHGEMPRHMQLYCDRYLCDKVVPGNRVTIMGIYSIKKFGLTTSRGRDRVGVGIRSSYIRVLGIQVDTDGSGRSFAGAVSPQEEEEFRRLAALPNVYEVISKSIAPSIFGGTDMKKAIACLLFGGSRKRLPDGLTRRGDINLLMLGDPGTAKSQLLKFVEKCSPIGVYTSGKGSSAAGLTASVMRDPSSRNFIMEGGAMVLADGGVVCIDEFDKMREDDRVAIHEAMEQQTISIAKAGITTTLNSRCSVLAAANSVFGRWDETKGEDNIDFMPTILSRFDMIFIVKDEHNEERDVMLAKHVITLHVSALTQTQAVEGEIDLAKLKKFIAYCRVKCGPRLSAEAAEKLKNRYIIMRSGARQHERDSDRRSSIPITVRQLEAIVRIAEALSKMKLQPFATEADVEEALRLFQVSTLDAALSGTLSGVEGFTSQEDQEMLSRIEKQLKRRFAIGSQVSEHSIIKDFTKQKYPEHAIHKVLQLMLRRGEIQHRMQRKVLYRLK
T1 sequence (Q14566 whole entry, further chain): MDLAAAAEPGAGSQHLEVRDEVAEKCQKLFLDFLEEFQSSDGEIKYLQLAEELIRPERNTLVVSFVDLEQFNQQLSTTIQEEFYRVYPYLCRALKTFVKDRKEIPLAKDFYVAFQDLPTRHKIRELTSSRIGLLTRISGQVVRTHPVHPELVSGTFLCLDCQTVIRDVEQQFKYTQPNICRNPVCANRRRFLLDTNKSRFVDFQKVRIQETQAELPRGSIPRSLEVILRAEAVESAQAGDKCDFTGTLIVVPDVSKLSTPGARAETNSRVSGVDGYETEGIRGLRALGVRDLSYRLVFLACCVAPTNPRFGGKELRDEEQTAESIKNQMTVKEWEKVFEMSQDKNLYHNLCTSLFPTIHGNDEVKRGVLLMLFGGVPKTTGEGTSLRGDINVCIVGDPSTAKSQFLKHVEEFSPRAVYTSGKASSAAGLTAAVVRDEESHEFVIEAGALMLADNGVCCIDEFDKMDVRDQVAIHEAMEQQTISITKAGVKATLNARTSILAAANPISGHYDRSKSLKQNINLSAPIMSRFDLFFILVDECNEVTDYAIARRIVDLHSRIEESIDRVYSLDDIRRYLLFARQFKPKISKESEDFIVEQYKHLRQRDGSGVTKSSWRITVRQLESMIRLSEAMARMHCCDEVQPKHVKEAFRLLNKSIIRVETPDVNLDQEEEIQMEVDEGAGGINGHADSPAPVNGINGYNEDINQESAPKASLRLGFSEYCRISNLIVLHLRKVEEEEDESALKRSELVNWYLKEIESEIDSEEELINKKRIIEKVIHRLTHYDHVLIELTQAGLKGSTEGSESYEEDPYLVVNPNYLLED
T1 sequence (P33993 whole entry, further chain): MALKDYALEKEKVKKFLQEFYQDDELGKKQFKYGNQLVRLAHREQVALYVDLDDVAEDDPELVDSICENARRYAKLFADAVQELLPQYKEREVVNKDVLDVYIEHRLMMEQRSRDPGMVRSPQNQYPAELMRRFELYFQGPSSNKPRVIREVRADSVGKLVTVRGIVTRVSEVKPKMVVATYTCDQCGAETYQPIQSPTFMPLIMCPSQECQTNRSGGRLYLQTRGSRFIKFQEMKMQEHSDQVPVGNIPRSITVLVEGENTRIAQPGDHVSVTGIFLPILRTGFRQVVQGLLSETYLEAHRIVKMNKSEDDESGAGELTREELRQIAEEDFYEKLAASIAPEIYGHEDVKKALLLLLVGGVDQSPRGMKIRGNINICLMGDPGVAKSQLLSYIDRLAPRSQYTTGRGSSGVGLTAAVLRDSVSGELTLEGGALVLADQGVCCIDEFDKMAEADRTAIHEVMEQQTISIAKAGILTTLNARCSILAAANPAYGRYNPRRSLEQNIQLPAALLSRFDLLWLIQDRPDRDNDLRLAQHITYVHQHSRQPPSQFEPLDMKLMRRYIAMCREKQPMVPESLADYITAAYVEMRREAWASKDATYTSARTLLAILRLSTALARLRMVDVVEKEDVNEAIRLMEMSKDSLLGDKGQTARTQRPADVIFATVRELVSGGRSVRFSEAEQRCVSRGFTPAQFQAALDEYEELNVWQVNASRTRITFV

Nc1ncnc2c1ncn2[C@@H]1O[C@H](COP(=O)(O)OP(=O)(O)OP(=O)(O)O)[C@@H](O)[C@H]1O [ATP]
Vmax of the hCMG ([1]; role: substrate, inhibitor CA1 2.5 μM present): without a change in the Vmax
Km ([1]; role: substrate, no inhibitor, read-out: Km for ATP, fork-unwinding activity): 690 µM
ATP hydrolysis rate of the human helicase ([2]; 500 μM ATP): −80 mol-ADP per minute per mol-hCMG
Km ([2]; described by others, read-out: Km for hCMG ATP hydrolysis activity): 625 µM

CO[C@@H]1[C@@H](OC(=O)c2ccc(C)[nH]2)[C@@H](O)[C@H](Oc2ccc3c(O)c(NC(=O)c4ccc(O)c(CC=C(C)C)c4)c(=O)oc3c2Cl)OC1(C)C [clorobiocin]
inhibition of hCMG ATP hydrolysis [3]: effective nature of hCMG inhibition
hCMG helicase inhibition in secondary strand-displacement assay ([1]; 500 μM compound): effective hCMG helicase inhibitors
growth suppression of solid tumor cell lines [4]: sensitive to similar low micromolar concentrations

O=C(NC1CCNCC1)c1[nH]ncc1NC(=O)c1c(Cl)cccc1Cl [AT7519]
phosphorylation of Cdk2 targets Rb, Cdc6 (S54P) and Cdk1 target PP1a [5]: blocks phosphorylation

human CMG helicase (hCMG) (Homo sapiens)
Km ([6]; inhibitor CA1 2.5 μM present): 1550 µM
Km ([6]; no inhibitor): 690 µM
